Assay results reported in patent US12503461B2, “Pesticidally active heterocyclic derivatives with sulfur and sulfoximine containing substituents” (SYNGENTA CROP PROTECTION AG, priority 2019, dated 2025).

Legend:
Format in all cases: in vivo
[1] = test system: Myzus persicae (Green Peach Aphid); test: Example B5: Myzus persicae (green peach aphid), feeding/contact activity, sprayed sunflower leaf discs; conditions: foliar, 144 h, application rate of 200 ppm, aphid population of mixed ages, 6 days after infestation
Procedure: Example B5: Myzus persicae (Green Peach Aphid). Feeding/Contact Activity
Sunflower leaf discs were placed onto agar in a 24-well microtiter plate and sprayed with aqueous test solutions prepared from 10′000 ppm DMSO stock solutions. After drying, the leaf discs were infested with an aphid population of mixed ages. The samples were assessed for mortality 6 days after infestation.

[2] = test system: Spodoptera littoralis (Egyptian Cotton Leaf Worm); test: Example B7: Spodoptera littoralis (Egyptian cotton leaf worm), sprayed cotton leaf discs, L1 larvae; conditions: foliar, 72 h, application rate of 200 ppm, 3 days after infestation, in comparison to untreated samples
How it was run: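 Cotton leaf discs on agar were sprayed with aqueous test solutions made from 10′000 ppm DMSO stocks, dried, and infested with five L1 larvae. Mortality, anti-feeding and growth inhibition were scored against untreated samples 3 days after infestation; control means any category exceeds the untreated sample.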

[3] = test system: Plutella xylostella (Diamond Back Moth); test: Example B4: Plutella xylostella (diamond back moth), treated artificial diet, eggs; conditions: 192 h, application rate of 200 ppm, 8 days after infestation, in comparison to untreated samples, read-out: effect in at least one of the two categories (mortality or growth inhibition)
Procedure: Example B4: Plutella xylostella (Diamond Back Moth
24-well microtiter plates with artificial diet were treated with aqueous test solutions prepared from 10′000 ppm DMSO stock solutions by pipetting. After drying, Plutella eggs were pipetted through a plastic stencil onto a gel blotting paper and the plate was closed with it. The samples were assessed for mortality and growth inhibition in comparison to untreated samples 8 days after infestation.

[4] = test system: Chilo suppressalis (Striped Rice Stemborer); test: Example B9: Chilo suppressalis (striped rice stemborer), treated artificial diet, L2 larvae; conditions: 144 h, application rate of 200 ppm, 6 days after infestation, in comparison to untreated samples, read-out: control (mortality, anti-feeding effect, or growth inhibition)
Procedure: Example B9: Chilo suppressalis (Striped Rice Stemborer
24-well microtiter plates with artificial diet were treated with aqueous test solutions prepared from 10′000 ppm DMSO stock solutions by pipetting. After drying, the plates were infested with L2 larvae (6-8 per well). The samples were assessed for mortality, anti-feeding effect, and growth inhibition in comparison to untreated samples 6 days after infestation. Control of Chilo suppressalis by a test sample is given when at least one of the categories mortality, anti-feedant effect, and growth inhibition is higher than the untreated sample.

[5] = test system: Bemisia tabaci (Cotton White Fly); test: Example B6: Bemisia tabaci (cotton white fly), feeding/contact activity, sprayed cotton leaf discs; conditions: foliar, 144 h, application rate of 200 ppm, adult white flies, 6 days after incubation
Procedure: Example B6: Bemisia tabaci (Cotton White Fly). Feeding/Contact Activity
Cotton leaf discs were placed on agar in 24-well microtiter plates and sprayed with aqueous test solutions prepared from 10′000 ppm DMSO stock solutions. After drying the leaf discs were infested with adult white flies. The samples were checked for mortality 6 days after incubation.

[6] = test system: Diabrotica balteata (Corn Root Worm); test: Example B1: Diabrotica balteata (corn root worm), sprayed maize sprouts on agar, L2 larvae; conditions: 96 h, application rate of 200 ppm, 4 days after infestation, in comparison to untreated samples, read-out: effect in at least one of the two categories (mortality or growth inhibition)
Procedure: Example B1: Diabrotica balteata (Corn Root Worm
Maize sprouts placed onto an agar layer in 24-well microtiter plates were treated with aqueous test solutions prepared from 10′000 ppm DMSO stock solutions by spraying. After drying, the plates were infested with L2 larvae (6 to 10 per well). The samples were assessed for mortality and growth inhibition in comparison to untreated samples 4 days after infestation.

[7] = test system: Frankliniella occidentalis (Western Flower Thrips); test: Example B3: Frankliniella occidentalis (western flower thrips), sprayed sunflower leaf discs; conditions: foliar, 168 h, application rate of 200 ppm, population of mixed ages, 7 days after infestation
Procedure: Example B3: Frankliniella occidentalis (Western Flower Thrips
Sunflower leaf discs were placed on agar in 24-well microtiter plates and sprayed with aqueous test solutions prepared from […] stock solutions. After drying the leaf discs were infested with a Frankliniella population of mixed ages. The samples were assessed for mortality 7 days after infestation.

[8] = test system: Euschistus heros (Neotropical Brown Stink Bug); test: Example B2: Euschistus heros (neotropical brown stink bug), sprayed soybean leaves, N2 nymphs; conditions: 120 h, application rate of 200 ppm, 5 days after infestation, in comparison to untreated samples, read-out: effect in at least one of the two categories (mortality or growth inhibition)
Procedure: Example B2: Euschistus heros (Neotropical Brown Stink Bug
Soybean leaves on agar in 24-well microtiter plates were sprayed with aqueous test solutions prepared from 10′000 ppm DMSO stock solutions. After drying the leaves were infested with N2 nymphs. The samples were assessed for mortality and growth inhibition in comparison to untreated samples 5 days after infestation.

CCS(=O)(=O)c1cc(C2(C#N)CC2)cnc1-c1nc2cc(S(=O)(=NCC(F)(F)F)C(F)(F)F)cnc2n1C (stereo not drawn) [P57, 1-[5-ethylsulfonyl-6-[3-methyl-6-[N-(2,2,2-trifluoroethyl)-S-(trifluoromethyl)sulfonimidoyl]imidazo[4,5-b]pyridin-2-yl]-3-pyridyl]cyclopropanecarbonitrile]
≥ 80%: mortality at 200 ppm [1] | percent control (mortality, anti-feeding effect or growth inhibition) at 200 ppm [2] | percent effect (mortality or growth inhibition) at 200 ppm [3] | percent control (mortality, anti-feedant effect or growth inhibition) at 200 ppm [4] | mortality at 200 ppm [5] | percent effect (mortality or growth inhibition) at 200 ppm [6] | mortality at 200 ppm [7]

CCS(=O)(=O)c1cc(C2(C#N)CC2)cnc1-c1nc2cc(S(=O)(=NC3CC3)C(F)(F)F)cnc2n1C (stereo not drawn) [P58, 1-[6-[6-[N-cyclopropyl-S-(trifluoromethyl)sulfonimidoyl]-3-methyl-imidazo[4,5-b]pyridin-2-yl]-5-ethylsulfonyl-3-pyridyl]cyclopropanecarbonitrile]
≥ 80%: percent control (mortality, anti-feeding effect or growth inhibition) at 200 ppm [2] | percent effect (mortality or growth inhibition) at 200 ppm [3] | percent control (mortality, anti-feedant effect or growth inhibition) at 200 ppm [4] | mortality at 200 ppm [5] | percent effect (mortality or growth inhibition) at 200 ppm [6] | effect (mortality or growth inhibition) at 200 ppm [8]
